Test results published in US10781224B2, “Bis(oxymethyl)phosphinic acid and biogenic metal salts thereof as regulators of plant growth and development” (priority 2016, dated 2020).

Tested on: corn (Krasnodar 385 MV variety)
Assay: Corn seed treatment with BHMPA salts: germinating power
Assay type: in vivo
Method: Experimental versions—soaking seeds in BHMPA solutions and solutions of BHMPA Ca, Mg, Na, Co, Mn, Cu, and Zn salts at 1·10^−6-1·10^−12% concentrations (doses). The studies were conducted in laboratory in Petri dishes; seed bed—two layers of filter paper. 50 seeds soaked in water (control) and in the solutions of the tested compounds (experimental) were placed into each dish. Wheat, corn, and rice seeds were exposed for one hour.
Seed germination energy and rate were calculated in percent as an arithmetic mean of the four experimental results (germination energy on the 4th day, wheat germination on the 8th day, rice and corn germination—on the 7th day). Germination was determined based on the germinating power indicators (length of the roots and sprouts and their wet and dry mass per 100 shoots).
The effect of pre-sowing seed treatment with the claimed BHMPA salts of biogenic metals was studied on winter wheat (Vershin variety), corn (Krasnodar 385 MV variety), and rice (Diamant variety).
The above data describe the seed viability only at the initial stage of germination, while the germination ability at the later stage of germination is defined by the initial germinating power. The method for the determination of the germinating power comprises measuring the height of the sprouts and primary roots, as well as the biomass and the dry mass thereof per 100 seedlings. [M. A. Kartuzova. Initial Germinating Power as Method of Biological Assessment of Seed Quality. Selection and Seed Farming, #2, 1953].

[1] = corn seeds, solution concentration 1 · 10^−10%
[2] = corn seeds, solution concentration 1 · 10^−6%, cobalt salt of BHMPA
[3] = corn seeds, solution concentration 1 · 10^−7%, cobalt salt of BHMPA
[4] = corn seeds, solution concentration 1 · 10^−8%, cobalt salt of BHMPA
[5] = corn seeds, solution concentration 1 · 10^−9%, cobalt salt of BHMPA
[6] = corn seeds, solution concentration 1 · 10^−10%, cobalt salt of BHMPA
[7] = corn seeds, solution concentration 1 · 10^−11%, cobalt salt of BHMPA
[8] = corn seeds, solution concentration 1 · 10^−12%, cobalt salt of BHMPA

## O=P([O-])(CO)CO.O=P([O-])(CO)CO.[Ca+2] [Ca-salt, Calcium BHMPA Salt]
corn
  optimum concentration for treating corn seeds before sowing: 1·10^−10%
[1]
  Length, root: 6.6 cm
  Length, root, + % to control: 12%
  Length, sprout: 3.2 cm
  Length, sprout, + % to control: 18.5%
  Mass, dry, root: 2.03 g/100 plantlings
  Mass, dry, root, + % to control: 15%
  Mass, dry, sprout: 1.47 g/100 plantlings
  Mass, dry, sprout, + % to control: 8%
  Mass, wet, root: 9.63 g/100 plantlings
  Mass, wet, root, + % to control: 10%
  Mass, wet, sprout: 8.59 g/100 plantlings
  Mass, wet, sprout, + % to control: 21%
corn, 1·10^−6% solution
  Length, root: 4.2 cm
  Length, root, + % to control: −7%
  Length, sprout: 2.5 cm
  Length, sprout, + % to control: −4%
  Mass, dry, root: 1.09 g/100 plantlings
  Mass, dry, root, + % to control: −2%
  Mass, dry, sprout: 0.63 g/100 plantlings
  Mass, dry, sprout, + % to control: −9%
  Mass, wet, root: 7.30 g/100 plantlings
  Mass, wet, root, + % to control: −2.5%
  Mass, wet, sprout: 4.21 g/100 plantlings
  Mass, wet, sprout, + % to control: −6%
corn, 1·10^−6%, 1·10^−7% and 1·10^−12% solutions
  difference from the control in germinating power: rather insignificant
corn, 1·10^−7% solution
  Length, root: 4.6 cm
  Length, root, + % to control: 2%
  Length, sprout: 2.7 cm
  Length, sprout, + % to control: 4%
  Mass, dry, root: 1.20 g/100 plantlings
  Mass, dry, root, + % to control: 8%
  Mass, dry, sprout: 0.72 g/100 plantlings
  Mass, dry, sprout, + % to control: 4%
  Mass, wet, root: 7.75 g/100 plantlings
  Mass, wet, root, + % to control: 3%
  Mass, wet, sprout: 4.67 g/100 plantlings
  Mass, wet, sprout, + % to control: 5%
corn, 1·10^−8% solution
  Length, root: 4.8 cm
  Length, root, + % to control: 7%
  Length, sprout: 2.8 cm
  Length, sprout, + % to control: 8%
  Mass, dry, root: 1.24 g/100 plantlings
  Mass, dry, root, + % to control: 12%
  Mass, dry, sprout: 0.85 g/100 plantlings
  Mass, dry, sprout, + % to control: 23%
  Mass, wet, root: 8.13 g/100 plantlings
  Mass, wet, root, + % to control: 8.5%
  Mass, wet, sprout: 4.84 g/100 plantlings
  Mass, wet, sprout, + % to control: 8.5%
corn, 1·10^−9% solution
  Length, root: 5.2 cm
  Length, root, + % to control: 15.5%
  Length, sprout: 3.0 cm
  Length, sprout, + % to control: 15%
  Mass, dry, root: 1.26 g/100 plantlings
  Mass, dry, root, + % to control: 13.5%
  Mass, dry, sprout: 0.96 g/100 plantlings
  Mass, dry, sprout, + % to control: 39%
  Mass, wet, root: 9.18 g/100 plantlings
  Mass, wet, root, + % to control: 22.5%
  Mass, wet, sprout: 4.99 g/100 plantlings
  Mass, wet, sprout, + % to control: 12%
corn, 1·10^−10% solution
  Length, root: 5.4 cm
  Length, root, + % to control: 20%
  Length, sprout: 3.2 cm
  Length, sprout, + % to control: 23%
  Mass, dry, root: 1.34 g/100 plantlings
  Mass, dry, root, + % to control: 21%
  Mass, dry, sprout: 1.23 g/100 plantlings
  Mass, dry, sprout, + % to control: 78%
  Mass, wet, root: 9.82 g/100 plantlings
  Mass, wet, root, + % to control: 31%
  Mass, wet, sprout: 5.61 g/100 plantlings
  Mass, wet, sprout, + % to control: 26%
corn, 1·10^−11% solution
  Length, root: 5.2 cm
  Length, root, + % to control: 15.5%
  Length, sprout: 2.9 cm
  Length, sprout, + % to control: 11.5%
  Mass, dry, root: 1.30 g/100 plantlings
  Mass, dry, root, + % to control: 17%
  Mass, dry, sprout: 1.09 g/100 plantlings
  Mass, dry, sprout, + % to control: 58%
  Mass, wet, root: 9.44 g/100 plantlings
  Mass, wet, root, + % to control: 26%
  Mass, wet, sprout: 5.15 g/100 plantlings
  Mass, wet, sprout, + % to control: 15%
corn, 1·10^−12% solution
  Length, root: 4.6 cm
  Length, root, + % to control: 2%
  Length, sprout: 2.7 cm
  Length, sprout, + % to control: 4%
  Mass, dry, root: 1.23 g/100 plantlings
  Mass, dry, root, + % to control: 11%
  Mass, dry, sprout: 0.81 g/100 plantlings
  Mass, dry, sprout, + % to control: 17%
  Mass, wet, root: 8.65 g/100 plantlings
  Mass, wet, root, + % to control: 15%
  Mass, wet, sprout: 4.73 g/100 plantlings
  Mass, wet, sprout, + % to control: 6%

## O.O.O=P([O-])(CO)CO.O=P([O-])(CO)CO.[Co+2] [Co-salt, Cobalt BHMPA Salt]
corn
  optimum concentration for treating corn seeds before sowing: 1·10^−7%
[2]
  Length, root: 5.0 cm
  Length, root, + % to control: 6%
  Length, sprout: 3.2 cm
  Length, sprout, + % to control: 7%
  Mass, dry, root: 1.31 g/100 plantlings
  Mass, dry, root, + % to control: 5%
  Mass, dry, sprout: 1.09 g/100 plantlings
  Mass, dry, sprout, + % to control: 12%
  Mass, wet, root: 9.76 g/100 plantlings
  Mass, wet, root, + % to control: 9%
  Mass, wet, sprout: 7.75 g/100 plantlings
  Mass, wet, sprout, + % to control: 24.5%
[3]
  Length, root: 6.2 cm
  Length, root, + % to control: 32%
  Length, sprout: 3.8 cm
  Length, sprout, + % to control: 27%
  Mass, dry, root: 1.44 g/100 plantlings
  Mass, dry, sprout: 1.21 g/100 plantlings
  Mass, dry, sprout, + % to control: 25%
  Mass, wet, root: 10.77 g/100 plantlings
  Mass, wet, root, + % to control: 20%
  Mass, wet, sprout: 9.96 g/100 plantlings
  Mass, wet, sprout, + % to control: 60%
[4]
  Length, root: 5.6 cm
  Length, root, + % to control: 19%
  Length, sprout: 3.6 cm
  Length, sprout, + % to control: 20%
  Mass, dry, root: 1.37 g/100 plantlings
  Mass, dry, root, + % to control: 10%
  Mass, dry, sprout: 1.14 g/100 plantlings
  Mass, dry, sprout, + % to control: 17.5%
  Mass, wet, root: 10.17 g/100 plantlings
  Mass, wet, root, + % to control: 13%
  Mass, wet, sprout: 9.00 g/100 plantlings
  Mass, wet, sprout, + % to control: 45%
[5]
  Length, root: 5.0 cm
  Length, root, + % to control: 6%
  Length, sprout: 3.5 cm
  Length, sprout, + % to control: 17%
  Mass, dry, root: 1.31 g/100 plantlings
  Mass, dry, root, + % to control: 5%
  Mass, dry, sprout: 1.07 g/100 plantlings
  Mass, dry, sprout, + % to control: 10%
  Mass, wet, root: 10.00 g/100 plantlings
  Mass, wet, root, + % to control: 11%
  Mass, wet, sprout: 7.58 g/100 plantlings
  Mass, wet, sprout, + % to control: 22%
[6]
  Length, root: 4.9 cm
  Length, root, + % to control: 4%
  Length, sprout: 3.3 cm
  Length, sprout, + % to control: 10%
  Mass, dry, root: 1.29 g/100 plantlings
  Mass, dry, root, + % to control: 3%
  Mass, dry, sprout: 1.03 g/100 plantlings
  Mass, dry, sprout, + % to control: 6%
  Mass, wet, root: 9.80 g/100 plantlings
  Mass, wet, root, + % to control: 9%
  Mass, wet, sprout: 6.75 g/100 plantlings
  Mass, wet, sprout, + % to control: 8.5%
[7]
  Length, root: 4.5 cm
  Length, root, + % to control: −4%
  Length, sprout: 3.0 cm
  Length, sprout, + % to control: 0%
  Mass, dry, root: 1.27 g/100 plantlings
  Mass, dry, root, + % to control: 2%
  Mass, dry, sprout: 0.98 g/100 plantlings
  Mass, dry, sprout, + % to control: 1%
  Mass, wet, root: 9.62 g/100 plantlings
  Mass, wet, root, + % to control: 7%
  Mass, wet, sprout: 6.41 g/100 plantlings
  Mass, wet, sprout, + % to control: 3%
[8]
  Length, root: 4.2 cm
  Length, root, + % to control: −11%
  Length, sprout: 2.9 cm
  Length, sprout, + % to control: −3%
  Mass, dry, root: 1.22 g/100 plantlings
  Mass, dry, root, + % to control: −2%
  Mass, dry, sprout: 0.98 g/100 plantlings
  Mass, dry, sprout, + % to control: 1%
  Mass, wet, root: 9.28 g/100 plantlings
  Mass, wet, root, + % to control: 3%
  Mass, wet, sprout: 6.23 g/100 plantlings
  Mass, wet, sprout, + % to control: 0%
corn, 1·10^−7% solution
  Length, root, + % to control: 32%
  Length, sprout, + % to control: 27%
  Mass, dry, root, + % to control: 15%
  Mass, dry, sprout, + % to control: 25%
  Mass, wet, root, + % to control: 20%
  Mass, wet, sprout, + % to control: 60%
corn, 1·10^−11% and 1·10^−12% solutions
  germination intensity vs control: no increase in the germination intensity
